From ChEMBL document CHEMBL2069232, “Novel structural insights for imidoselenocarbamates with antitumoral activity related to their ability to generate methylselenol” (Bioorg Med Chem, 2012)
The source made the active and inactive calls. The calls are words filed in the database; no cut-off is given here. Numbered stars: 1 amine (or outer) side, 2 acyl side, 3 side chain; on linkers, the order of the positions; unused ones are H or OH. Bridge positions count the residues as written; N and C are the ends. Square brackets hold non-standard residues; d marks the D form. Peptide text beside a SMILES is read from it. I, II: the chains in the order shown. Actinocin(1to9) = Cc1c2oc3c(C)ccc(C(=O)[*:2])c3nc-2c(C(=O)[*:1])c(N)c1=O; NMeV = CN[C@H](C(=O)O)C(C)C; Sar = CNCC(=O)O

Legend:
[1] = Induction of methylselenol release in pH 8.0 phosphate buffer containing 100 mM Na2PO4, 1 mM EDTA and 100 uM DTNB; assay type: physicochemical
[2] = Induction of methylselenol release in phenol-red free RPMI 1640 medium containing 100 uM DTNB; assay type: physicochemical
NCI-H157 [3] = assay: Induction of apoptosis in human NCI-H157 cells at 10 uM incubated for 5 hrs in serum-free medium by annexin V/propidium iodide staining by flow cytometry; assay type: functional, cell-based
NCI-H157 [4] = assay: Induction of apoptosis in human NCI-H157 cells assessed as apoptotic cell level at 10 uM incubated for 5 hrs in serum-free medium by annexin V/propidium iodide staining by flow cytometry; assay type: functional
NCI-H157 [5] = assay: Induction of apoptosis in human NCI-H157 cells assessed as damaged cell level at 10 uM incubated for 5 hrs in serum-free medium by annexin V/propidium iodide staining by flow cytometry; assay type: functional
NCI-H157 [6] = assay: Induction of apoptosis in human NCI-H157 cells assessed as necrotic cell level at 10 uM incubated for 5 hrs in serum-free medium by annexin V/propidium iodide staining by flow cytometry; assay type: functional
NCI-H157 [7] = assay: Induction of apoptosis in human NCI-H157 cells assessed as live cell level at 10 uM incubated for 5 hrs in serum-free medium by annexin V/propidium iodide staining by flow cytometry; assay type: functional, cell-based

SMILES	t1/2 [1]	t1/2 [2]	Activity (NCI-H157 [3])	Activity (NCI-H157 [4])	Activity (NCI-H157 [5])	Activity (NCI-H157 [6])	Activity (NCI-H157 [7])
C[Se]/C(=N/C(=O)c1cccnc1Cl)NC(=O)c1cccnc1Cl	40 h	4.7 h	Active	–	–	–	–
C[Se]/C(=N\C(=O)c1ccc(C(F)(F)F)cc1)NC(=O)c1ccc(C(F)(F)F)cc1	–	–	inactive	–	–	–	–
Cc1c2oc3c(C)ccc(C(=O)N[C@@H]4C(=O)N[C@H](C(C)C)C(=O)N5CCC[C@H]5C(=O)N(C)CC(=O)N(C)[C@@H](C(C)C)C(=O)O[C@@H]4C)c3nc-2c(C(=O)N[C@@H]2C(=O)N[C@H](C(C)C)C(=O)N3CCC[C@H]3C(=O)N(C)CC(=O)N(C)[C@@H](C(C)C)C(=O)O[C@@H]2C)c(N)c1=O [DACTINOMYCIN] (I: T[dV]P[Sar][NMeV] / II: T[dV]P[Sar][NMeV]; ester I:1-I:C, II:1-II:C; linker I:N-II:N via Actinocin(1to9))	–	–	–	9%	23%	3%	Active
C[Se]/C(=N/C(C)=O)NC(C)=O	9.2 h	0.82 h	Active	–	–	–	–
C[Se]/C(=N/C(=O)c1cccnc1)NC(=O)c1cccnc1	26 h	2.9 h	Active	11%	28%	5%	Active
C[Se]/C(=N\C(=O)c1ccccc1)NC(=O)c1ccccc1	–	–	inactive	–	–	–	–
CS/C(=N/C(=O)c1cccnc1)NC(=O)c1cccnc1	1333 h	24 h	–	–	–	–	–
C[Se]/C(=N\C(=O)c1ccc(C)cc1)NC(=O)c1ccc(C)cc1	–	–	inactive	–	–	–	–
CS/C(=N/C(=O)c1cccnc1Cl)NC(=O)c1cccnc1Cl	917 h	31 h	–	–	–	–	–
COc1ccc(C(=O)/N=C(\NC(=O)c2ccc(OC)cc2OC)[Se]C)c(OC)c1	–	–	inactive	–	–	–	–
